These compounds were tested on FL-SMN mRNA (SMN transcript containing exons 7 and 8) (assay: Live-cell assay to measure changes in FL-SMN mRNA levels (qPCR) after exposure to the compounds). Conditions: fibroblasts derived from patients SMA (GM03813); 24 hours incubation.
Assay type: cell-based, human
Experimental: In this example, each test compound was administered to cultured cells, and changes in the expression levels of mRNA transcripts of SMN, i.e., FL-SMN containing exons 7 and 8 and Delta7 with exon 7 skipped, were examined using PCR.
Fibroblasts derived from patients SMA (GM03813) (Coriell Cell Repositories) were cultured with passages using DMEM (High Glucose) (Life Technologies) supplemented with 10% FBS (Life Technologies). Cells were seeded in tissue-culture-treated 96-well plates (Corning) at 1.5 or 0.5×10^4 cells/well in 100 μL of medium. The cells were incubated in 5% CO2 for 6 hours, and the medium was replaced with 100 μL of medium (with DMSO, 0.1% final concentration) containing each of the compounds given in the Examples. After additional incubation for 24 hours under the same conditions, the cells were washed once with D-PBS(—) (Wako) and 25 μL/well of the lysis solution (with gDNA Remove) contained in the SuperPrep (registered trademark) Cell Lysis & RT Kit for qPCR (Toyobo life science) was added according to the manufacturer's instructions so that the cells were lysed and the genomic DNA was degraded. Furthermore, 5 μL of the STOP solution (with RNase Inhibitor) contained in the kit was added to provide RNA-containing solutions. Six microliters of the RNA-containing solutions were each mixed with 14 μL of a reverse transcription solution containing transcriptase together with dNTP, random primers and an oligodT primer. Reverse transcription was performed at 37° C. (15 min), 50° C. (5 min), and 98° C. (5 min), to give total cDNAs. The total cDNAs were diluted 30-fold with Ultra-pure water (Invitrogen) to measure the expression levels of FL-SMN, delta7, and GAPDH. For quantitative PCR (qPCR), a PCR solution was prepared according to the instructions of the manufacturer of the THUNDERBIRD (registered trademark) Probe qPCR Mix (Toyobo life science). Five microliters of the diluted total cDNA solutions and oligo DNA standard solutions, each containing either 001-Standard FL-SMN (SEQ ID NO. 1) or 002-Standard delta7 (SEQ ID NO. 2), were each mixed with 10 μL of each of the PCR solutions containing a qPCR probe, primers, and PCR enzyme. […] The oligoDNA standard solutions were prepared as those containing either of 5×10^8, 5×10^7, 5×10^6, 5×10^5, 5×10^4, 5×10^3, 5×10^2, 5×10, 5, or 0 copies. For the oligo DNA standards, primers, and probes, oligonucleotides synthesized by Integrated DNA Technologies, Inc. (IDT) were used. […] FIGS. 3B and 3D show their detection mechanisms. The final concentrations of the primers and probes added were 0.4 μM and 0.15 μM, respectively. The qPCR was performed using the following conditions on a ViiA7 instrument (Applied Biosystems): first stage: 95° C. (1 min)→second stage: 95° C. (15 sec)→third stage: 60° C. (1 min)→40 repeated cycles of the second and third stages. The GAPDH mRNA was used as the internal control, and the commercially available 20×gene expression PCR assay (Life Technologies, 4326317E, Hs99999905_ml) and Standard GAPDH (SEQ ID NO. 7) (see FIG. 1) was used to determine the number of copies of this gene. The measurement values obtained for the samples to be measured were standardized against the respective value obtained for GAPDH.
Using the above-mentioned assays, the activities of the compounds of the Examples were evaluated. Specifically, the percentages of the FL-SMN and delta7 values obtained using DMSO without the compounds and standardized against GAPDH were set as 100% and those of the FL-SMN and delta7 values obtained at the time of administration of the compounds and standardized against GAPDH were calculated. […]

Structure (SMILES) | Percentage of increase (FL-SMN mRNA standardized against GAPDH, DMSO control set as 100%)
Cc1cn2cc(-c3ccc4nc(C5CCN(C)CC5)[nH]c(=O)c4c3)cc(C(F)(F)F)c2n1 [Example 75, 2-(1-methylpiperidin-4-yl)-6-[2-methyl-8-(trifluoromethyl)imidazo [1,2-a]pyridin-6-yl]quinazolin-4(3H)-one] | ** (equal to or higher than 120% but lower than 150%)
Cc1cn2cc(-c3ccc4nc(C5CCN(C)CC5)[nH]c(=O)c4c3)cc(F)c2n1 [Example 10, 6-(8-Fluoro-2-methylimidazo[1,2-α]pyridin-6-yl)-2-(1-methylpiperidin-4-yl)quinazolin-4(3H)-one] | **** (equal to or higher than 180%)
CN1CCC(c2nc3ccc(-c4ccc(-c5cnn(C)c5)cc4)cc3c(=O)[nH]2)CC1 [Example 77, 2-(1-methylpiperidin-4-yl)-6-[4-(1-methyl-1H-pyrazol-4-yl)phenyl]quinazolin-4(3H)-one] | * (equal to or higher than 100% but lower than 120%)
CN1CCC(c2ccc3nc(-c4cc5n(n4)CCOC5)[nH]c(=O)c3c2)CC1 [Example 46, 2-(6,7-dihyrdo-4H-pyrazolo[5,1-c][1,4]oxazin-2-yl)-6-(1-methylpiperidin-4-yl)quinazolin-4(3H)-one] | * (equal to or higher than 100% but lower than 120%)
CCN1CCC(F)(c2nc3cnc(-c4cc(F)c5nc(C)cn5c4)cc3c(=O)[nH]2)CC1 [Example 109, 2-(1-ethyl-4-fluoropiperidin-4-yl)-6-(8-fluoro-2-methylimidazo[1,2-a]pyridin-6-yl)pyrido[3,4-d]pyrimidin-4(3H)-one] | *** (equal to or higher than 150% but lower than 180%)
Cc1nc2c(C)cc(-c3ccc4nc(C5CCN(C)CC5)[nH]c(=O)c4c3)cc2o1 [Example 71, 6-(2,4-dimethyl-1,3-benzoxazol-6-yl)-2-(1-methylpiperidin-4-yl)quinazolin-4(3H)-one] | * (equal to or higher than 100% but lower than 120%)
CCc1cn2cc(-c3ccc4nc(C5CCN(C)CC5)[nH]c(=O)c4c3)ccc2n1 [Example 68, 6-(2-ethylimidazo[1,2-a]pyridin-6-yl)-2-(1-methylpiperidin-4-yl)quinazolin-4(3H)-one] | * (equal to or higher than 100% but lower than 120%)
COCCN1CCC(F)(c2nc3ccc(-c4cc(F)c5nc(C)cn5c4)cc3c(=O)[nH]2)CC1 [Example 110, 2-[4-fluoro-1-(2-methoxyethyl)piperidin-4-yl]-6-(8-fluoro-2-methylimidazo[1,2-a]pyridin-6-yl)quinazolin-4(3H)-one] | ** (equal to or higher than 120% but lower than 150%)
Cc1cn2nc(-c3nc4ccc(N5CCN(C)CC5=O)cc4c(=O)[nH]3)cc2c(C)n1 [Example 78, 2-(4,6-dimethylpyrazolo[1,5-a]pyrazin-2-yl)-6-(4-methyl-2-oxopiperazin-1-yl)quinazolin-4(3H)-one] | * (equal to or higher than 100% but lower than 120%)
Cc1cn2nc(-c3nc4cc(F)c(N5CCN(C)CC5)cc4c(=O)[nH]3)cc2c(C)n1 [Example 7, 2-(4,6-Dimethylpyrazolo[1,5-α]pyrazin-2-yl)-7-fluoro-6-(4-methylpiperazin-1-yl)quinazolin-4(3H)-one] | *** (equal to or higher than 150% but lower than 180%)
Cc1nc2c(F)cc(-c3ccc4nc(C5CCN(C6CC6)CC5)[nH]c(=O)c4c3)cc2o1 [Example 27, 2-(1-cyclopropylpiperidin-4-yl)-6-(4-fluoro-2-methyl-1,3-benzoxazol-6-yl)quinazolin-4(3H)-one] | **** (equal to or higher than 180%)
Cc1cn2ccc(-c3ccc4ncn(C5CCN(C)CC5)c(=O)c4c3)cc2n1 [Example 80, 6-(2-methylimidazo[1,2-a]pyridin-7-yl)-3-(1-methylpiperidin-4-yl)quinazolin-4(3H)-one] | * (equal to or higher than 100% but lower than 120%)
Cc1nc2ccc(-c3ccc4nc(C5CCN(C)CC5)[nH]c(=O)c4c3)cc2o1 [Example 13, 6-(2-Methyl-1,3-benzoxazol-6-yl)-2-(1-methylpiperidin-4-yl)quinazolin-4(3H)-one] | **** (equal to or higher than 180%)
Cc1cn2nc(-c3nc4c(F)cc(C5CCN(C)CC5)cc4c(=O)[nH]3)cc2c(C)n1 [Example 3, 2-(4,6-Dimethylpyrazolo[1,5-α]pyrazin-2-yl)-8-fluoro-6-(1-methylpiperidin-4-yl)quinazolin-4(3H)-one] | **** (equal to or higher than 180%)
Cc1cn2nc(-c3nc4c(C)cc(N5CCN(C)CC5)cc4c(=O)[nH]3)cc2c(C)n1 [Example 21, 2-(4,6-Dimethylpyrazolo[1,5-α]pyrazin-2-yl)-8-methyl-6-(4-methylpiperazin-1-yl)quinazolin-4(3H)-one] | **** (equal to or higher than 180%)
Cc1nc2c(F)cc(-c3ccc4nc(C5CCN(C)CC5)[nH]c(=O)c4c3)cc2o1 [Example 18, 6-(4-Fluoro-2-methyl-1,3-benzoxazol-6-yl)-2-(1-methylpiperidin-4-yl)quinazolin-4(3H)-one] | **** (equal to or higher than 180%)
Cc1cn2nc(-c3nc4ccc(N5CCN(C)C[C@H]5C)cc4c(=O)[nH]3)cc2c(C)n1 [Example 128, (R)-6-(2,4-simethylpiperazin-1-yl)-2-(4,6-dimethylpyrazolo[1,5-a]pyrazin-2-yl)quinazolin-4(3H)-one] | **** (equal to or higher than 180%)
Cc1cn2cc(-c3nc4ccc(N5CCN(C)CC5)cc4c(=O)[nH]3)cc2c(C)n1 [Example 64, 2-(1,3-dimethylpyrrolo[1,2-a]pyrazin-7-yl)-6-(4-methylpiperazin-1-yl)quinazolin-4(3H)-one] | * (equal to or higher than 100% but lower than 120%)
Cc1nc2c(F)cc(-c3cc4c(=O)[nH]c(C5(F)CCNCC5)nc4cn3)cc2o1 [Example 111, 6-(4-fluoro-2-methy-1,3-benzoxazol-6-yl)-2-(4-fluoropiperidin-4-yl)pyrido[3,4-d]pyrimidin-4(3H)-one] | **** (equal to or higher than 180%)
Cc1cc2oc(-c3nc4ccc(N5CCN(C)CC5)cc4c(=O)[nH]3)cc2c(C)n1 [Example 11, 2-(4,6-Dimethylfuro[3,2-c]pyridin-2-yl)-6-(4-methylpiperazin-1-yl)quinazolin-4(3H)-one] | *** (equal to or higher than 150% but lower than 180%)
CCN1CCC(F)(c2nc3ccc(-c4cc(F)c5nc(C)cn5c4)cc3c(=O)[nH]2)CC1 [Example 92, 2-(1-Ethyl-4-fluoropiperidin-4-yl)-6-(8-fluoro-2-methylimidazo[1,2-a]pyridin-6-yl)quinazolin-4(3H)-one] | **** (equal to or higher than 180%)
Cc1cn2nc(-c3nc4ccc(N5CCOCC5)cc4c(=O)[nH]3)cc2c(C)n1 [Example 79, 2-(4,6-dimethylpyrazolo[1,5-a]pyrazin-2-yl)-6-(morpholin-4-yl)quinazolin-4(3H)-one] | * (equal to or higher than 100% but lower than 120%)

— patent US12012410B2, “Substituted pyrazolo[1,5-a]pyrazines for spinal muscular atrophy” (REBORNA BIOSCIENCES, INC., priority 2018, dated 2024)
